What was measured:
[1] = biological target: T1, sodium taurocholate cotransporting polypeptide (NTCP) (Homo sapiens, UniProt Q14973); assay: Inhibition of hepatic transporter NTCP, transfected CHO cells; format: cell-based
T1 construct: expressed in transfected cells; host or cells: Chinese Hamster Ovary (CHO)
T1 sequence (Q14973 1-349): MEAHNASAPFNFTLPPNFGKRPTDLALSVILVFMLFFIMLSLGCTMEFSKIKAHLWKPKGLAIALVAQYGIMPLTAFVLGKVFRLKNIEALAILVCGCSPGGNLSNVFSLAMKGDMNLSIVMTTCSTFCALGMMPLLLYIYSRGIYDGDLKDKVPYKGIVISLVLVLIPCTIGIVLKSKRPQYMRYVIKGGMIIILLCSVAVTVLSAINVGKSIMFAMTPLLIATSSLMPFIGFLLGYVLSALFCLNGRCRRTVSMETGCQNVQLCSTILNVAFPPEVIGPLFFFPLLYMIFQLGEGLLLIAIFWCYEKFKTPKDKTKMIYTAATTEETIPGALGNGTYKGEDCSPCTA
Protocol: Inhibition constants (IC50) were measured for human bile salt export pump (BSEP), sodium taurocholate cotransporting polypeptide (NTCP), multidrug resistance protein 2 (MRP2), P-glycoprotein (Pgp), breast cancer resistance protein (BCRP), organic anion-transporting polypeptide 1B1 (OATP1B1), and OATP1B3 in transfected cell-lines. Known inhibitors were used as positive controls.

[2] = Cumulative incidence of treatment-emergent serum aminotransferase abnormalities in clinical trials; format: in vivo, human
Excerpt: The ambrisentan clinical development program included placebo-controlled and non-placebo-controlled studies. One Phase 2 study (AMB-220) and two Phase 3 studies (AMB-320 and AMB-321) were completed at the time of the NDA submission. Three ongoing studies (AMB-220-E, AMB-222, and AMB-320/321-E) provided additional data in both the original NDA and the 4-month safety update, and data from one additional ongoing study (AMB-323) were included in the 4-month safety update.
The cumulative incidence of aminotransferase elevations by severity, summarized as a percentage of the cumulative number of subjects who received ambrisentan in clinical trials, is provided in Table 1. The cumulative incidence of aminotransferase elevations>3×ULN (upper limit of the normal range) accompanied by total bilirubin>2×ULN was 0.3% (2 subjects, both with alternative causes for the liver function test (LFT) abnormalities); the associated mean exposure to ambrisentan was 112.5 weeks (maximum, 341.0 weeks). In comparison, during the 12-week placebo controlled trials, 1 patient (1/132, 0.7%) receiving placebo had elevated aminotransferases (both alanine transaminase (ALT) and aspartate transaminase (AST) were >5×ULN) along with elevated total bilirubin (>2×ULN).

ETA receptor = biological target: T2, ETA receptor (Homo sapiens, UniProt P25101); conditions: read-out: affinity for the ETA receptor; cited from earlier work
T2 sequence (P25101 21-427): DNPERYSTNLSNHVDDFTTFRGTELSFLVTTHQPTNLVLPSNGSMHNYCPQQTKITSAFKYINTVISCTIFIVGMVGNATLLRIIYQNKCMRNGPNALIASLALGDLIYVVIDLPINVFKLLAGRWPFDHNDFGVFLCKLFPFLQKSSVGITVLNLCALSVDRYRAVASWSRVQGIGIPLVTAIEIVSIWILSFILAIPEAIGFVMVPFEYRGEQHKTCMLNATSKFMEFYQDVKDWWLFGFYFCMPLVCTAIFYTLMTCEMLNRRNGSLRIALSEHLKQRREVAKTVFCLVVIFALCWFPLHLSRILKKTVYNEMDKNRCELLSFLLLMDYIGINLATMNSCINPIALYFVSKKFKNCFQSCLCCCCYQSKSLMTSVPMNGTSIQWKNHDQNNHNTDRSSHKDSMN

human hepatocytes = conditions: cited from earlier work
[3] = >3 × ULN and total bilirubin > 2 × ULN, N = 707
[4] = Total > 3 × ULN, all subjects N = 707

SMILES | effect on NTCP [1] | ALT/AST elevations, patient number ([2]; >3 to ≦5 × ULN, N = 707) | ALT/AST elevations, patients (%) ([2]; >3 to ≦5 × ULN, N = 707) | ALT/AST elevations, patient number [2, 3] | ALT/AST elevations, patients (%) [2, 3] | ALT/AST elevations, patients (%) ([2]; >3 × ULN and total bilirubin > 2 × ULN, N = 707, listed as ambrisentan) | ALT/AST elevations, patient number ([2]; >5 to ≦8 × ULN, N = 707) | ALT/AST elevations, patients (%) ([2]; >5 to ≦8 × ULN, N = 707) | ALT/AST elevations, patient number ([2]; >8 × ULN, N = 707) | ALT/AST elevations, patients (%) ([2]; >8 × ULN, N = 707) | ALT/AST elevations, patient number [2, 4] | ALT/AST elevations, patients (%) [2, 4] | Ki (ETA receptor) | effect on hepatobiliary transporter activity (human hepatocytes) | IC50 ([1]; NTCP)
COC(c1ccccc1)(c1ccccc1)[C@H](Oc1nc(C)cc(C)n1)C(=O)O [Ambrisentan, (25)-2-[(4,6-dimethylpyrimidin-2-yl)oxy]-3-methoxy-3,3-diphenylpropanoic acid] | no measurable effect | 25 | (3.5) % | 2 | (0.3) % | 0.3% | 1 | (0.1) % | 9 | (1.3) % | 35 | (5.0) % | ~0.012 nM | less potent | 
COc1ccccc1Oc1c(NS(=O)(=O)c2ccc(C(C)(C)C)cc2)nc(-c2ncccn2)nc1OCCO [Bosentan] | inhibition was observed |  |  |  |  |  |  |  |  |  |  |  |  | decreased transporter activity to the greatest extent | 36.5 µM
